Source: PubChem BioAssay AID180 (DTP/NCI, 2004)
“And” between values parts separate entries of the source, which are not always exact repeats. Identical values can stand only once.

System: BDF1 mice, Adenocarcinoma 755 s.c., tumor weight T/C
Assay: NCI In Vivo Anticancer Drug Screen. Data for tumor model Adenocarcinoma 755 (subcutaneous) in B6D2F1 (BDF1) mice
Conditions: endpoint: mean tumor weight, higher = larger tumour
How it was run: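 Readout: T/C, i.e. treated-group measurement over vehicle-control measurement. Endpoint is survival or tumor size in tumor-bearing mice given compound.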

[1] = dose: 25.0 mg/kg/injection, schedule: Q01DX011 (ip), vehicle: methylcellulose (MC)
[2] = dose: 75.0 mg/kg/injection, schedule: Q01DX011 (ip), vehicle: methylcellulose (MC)
[3] = dose: 225.0 mg/kg/injection, schedule: Q01DX011 (ip), vehicle: methylcellulose (MC)
[4] = dose: 30.0 mg/kg/injection, schedule: Q01DX011 (ip), vehicle: carboxymethylcellulose (CMC)
[5] = dose: 60.0 mg/kg/injection, schedule: Q01DX011 (ip), vehicle: carboxymethylcellulose (CMC)
[6] = dose: 120.0 mg/kg/injection, schedule: Q01DX011 (ip), vehicle: carboxymethylcellulose (CMC)
[7] = dose: 240.0 mg/kg/injection, schedule: Q01DX011 (ip), vehicle: carboxymethylcellulose (CMC)
[8] = dose: 12.5 mg/kg/injection, schedule: Q01DX011 (ip), vehicle: methylcellulose (MC)
[9] = dose: 50.0 mg/kg/injection, schedule: Q01DX011 (ip), vehicle: methylcellulose (MC)
[10] = dose: 100.0 mg/kg/injection, schedule: Q01DX011 (ip), vehicle: methylcellulose (MC)

Nc1nc(SCc2ccccc2)c2ncn(C3CCCCC3)c2n1 was tested, and the T/C [1] was 113 % of control, the T/C [2] was 121 % of control and the T/C [3] was 210 % of control.
With Cc1cc2nc3c(=O)[nH]c(=O)nc-3n(CCO)c2cc1C the T/C (dose: 800.0 mg/kg/injection, schedule: Q01DX011 (ip), vehicle: methylcellulose (MC)) was 98 % of control and the T/C (dose: 1000.0 mg/kg/injection, schedule: Q01DX011 (ip), vehicle: methylcellulose (MC)) was 95 % of control.
For COc1cc(N=Nc2cccc(S(=O)(=O)O)c2)ccc1NC(=O)c1ccc(C(=O)Nc2ccc(N=Nc3cccc(S(=O)(=O)O)c3)cc2OC)cc1, the T/C [4] was 102 % of control, the T/C [5] was 105 % of control and the T/C [6] was 82 % of control. The T/C [7] was 57 % of control.
With CCCCn1cnc2c(SSc3ncnc4c3ncn4CCCC)ncnc21 the T/C (dose: 0.5 mg/kg/injection, schedule: Q01DX011 (ip), vehicle: carboxymethylcellulose (CMC)) was 94 % of control, the T/C (dose: 1.0 mg/kg/injection, schedule: Q01DX011 (ip), vehicle: carboxymethylcellulose (CMC)) was 104 % of control and the T/C (dose: 2.0 mg/kg/injection, schedule: Q01DX011 (ip), vehicle: carboxymethylcellulose (CMC)) was 101 % of control. The T/C (dose: 4.0 mg/kg/injection, schedule: Q01DX011 (ip), vehicle: carboxymethylcellulose (CMC)) was 77 % of control, the T/C (dose: 7.5 mg/kg/injection, schedule: Q01DX011 (ip), vehicle: other) was 32 % of control and the T/C (dose: 8.0 mg/kg/injection, schedule: Q01DX011 (ip), vehicle: carboxymethylcellulose (CMC)) was 19 % of control. The T/C (dose: 15.0 mg/kg/injection, schedule: Q01DX011 (ip), vehicle: other) was 23 % of control, the T/C (dose: 16.0 mg/kg/injection, schedule: Q01DX011 (ip), vehicle: carboxymethylcellulose (CMC)) was 13 % of control and the T/C (dose: 30.0 mg/kg/injection, schedule: Q01DX011 (ip), vehicle: other) was 1 % of control. The T/C (dose: 31.0 mg/kg/injection, schedule: Q01DX011 (ip), vehicle: carboxymethylcellulose (CMC)) was 6 % of control and the T/C (dose: 62.0 mg/kg/injection, schedule: Q01DX011 (ip), vehicle: carboxymethylcellulose (CMC)) was 5 % of control.
In the case of CC(C)C(=O)OCC1OC(n2cnc3c(=S)nc(N)[nH]c32)C(OC(=O)C(C)C)C1OC(=O)C(C)C (configuration not stated), the T/C (dose: 1.5 mg/kg/injection, schedule: Q01DX011 (ip), vehicle: carboxymethylcellulose (CMC)) is reported as 76 % of control and 79 % of control, the T/C (dose: 3.0 mg/kg/injection, schedule: Q01DX011 (ip), vehicle: carboxymethylcellulose (CMC)) is reported as 43 % of control and the T/C (dose: 6.0 mg/kg/injection, schedule: Q01DX011 (ip), vehicle: carboxymethylcellulose (CMC)) is reported as 25 % of control. The T/C (dose: 12.0 mg/kg/injection, schedule: Q01DX011 (ip), vehicle: carboxymethylcellulose (CMC)) was 18 % of control.
For CCOCCNc1ncnc2c1cnn2C, the T/C [8] was 112 % of control, the T/C [1] was 65 % of control and the T/C [9] was 38 % of control. The T/C [10] was 17 % of control.
With Nc1nc(Cl)nc2c1ncn2C1OC(CO)C(O)C1O (configuration not stated) the T/C (dose: 0.05 mg/kg/injection, schedule: Q01DX011 (ip), vehicle: methylcellulose (MC)) was 59 % of control, the T/C (dose: 0.1 mg/kg/injection, schedule: Q01DX011 (ip), vehicle: methylcellulose (MC)) was 84 % of control and the T/C (dose: 0.2 mg/kg/injection, schedule: Q01DX011 (ip), vehicle: methylcellulose (MC)) was 48 % of control.
In the case of COC1C(OC(N)=O)C(O)C(Oc2ccc3c(O)c(NC(=O)c4ccc(O)c(CC=C(C)C)c4)c(=O)oc3c2C)OC1(C)C (configuration not stated), the T/C (dose: 50.0 mg/kg/injection, schedule: Q01DX011 (ip), vehicle: saline) is reported as 78 % of control, the T/C (dose: 100.0 mg/kg/injection, schedule: Q01DX011 (ip), vehicle: saline) is reported as 42 % of control and the T/C (dose: 200.0 mg/kg/injection, schedule: Q01DX011 (ip), vehicle: saline) is reported as 60 % of control.
For Nc1nc2c(nc(Br)n2C2OC(CO)C(O)C2O)c(=O)[nH]1 (configuration not stated), the T/C [4] was 82 % of control, the T/C [5] was 43 % of control and the T/C [6] was 17 % of control.
In the case of O=c1[nH]cnc2c1ncn2C1CCCO1 (configuration not stated), the T/C [4] is reported as 80 % of control, the T/C [5] is reported as 105 % of control and the T/C [6] is reported as 106 % of control. The T/C [7] was 75 % of control.
For O=C(Nc1nc2c(ncn2C2CC(OC(=O)c3ccccc3)C(COC(=O)c3ccccc3)O2)c(=O)[nH]1)c1ccccc1 (configuration not stated), the T/C [4] was 103 % of control, the T/C [5] was 94 % of control and the T/C [6] was 113 % of control. For the same compound, the T/C [7] was 124 % of control.
In the case of CN(Cc1ccccc1)c1ncnc2[nH]ncc12, the T/C [8] is reported as 42 % of control, the T/C [1] is reported as 62 % of control and the T/C [9] is reported as 10 % of control. For the same compound, the T/C [10] was 2 % of control.
In the case of c1ccc(N2CCSCC2)cc1, the T/C (dose: 40.5 mg/kg/injection, schedule: Q01DX011 (ip), vehicle: methylcellulose (MC)) is reported as 16 % of control and 28 % of control.
COC(=O)c1cc(=O)[nH]c(N)n1 was tested, and the T/C (dose: 15.0 mg/kg/injection, schedule: Q01DX011 (ip), vehicle: saline) was 101 % of control, the T/C (dose: 31.0 mg/kg/injection, schedule: Q01DX011 (ip), vehicle: saline) was 150 % of control and the T/C (dose: 62.0 mg/kg/injection, schedule: Q01DX011 (ip), vehicle: saline) was 97 % of control. For the same compound, the T/C (dose: 125.0 mg/kg/injection, schedule: Q01DX011 (ip), vehicle: saline) was 81 % of control and the T/C (dose: 250.0 mg/kg/injection, schedule: Q01DX011 (ip), vehicle: saline) was 113 % of control.
Nc1nc(O)c(Br)c(=O)[nH]1 was tested, and the T/C (dose: 15.0 mg/kg/injection, schedule: Q01DX011 (ip), vehicle: methylcellulose (MC)) was 86 % of control, the T/C (dose: 31.0 mg/kg/injection, schedule: Q01DX011 (ip), vehicle: methylcellulose (MC)) was 69 % of control and the T/C (dose: 62.0 mg/kg/injection, schedule: Q01DX011 (ip), vehicle: methylcellulose (MC)) was 68 % of control.
Fc1cccc(CSc2ncnc3c2ncn3C2CCCS2)c1 (configuration not stated) was tested, and the T/C [1] was 61 % of control, the T/C [2] was 62 % of control and the T/C [3] was 32 % of control.
In the case of CC(=O)OCC(=O)[C@@]1(O)CC[C@H]2[C@@H]3C[C@H](C)C4=CC(=O)C=C[C@]4(C)[C@H]3[C@@H](O)C[C@@]21C, the T/C (dose: 2.5 mg/kg/injection, schedule: Q01DX011 (sc), vehicle: steriod suspending solution) is reported as 70 % of control, the T/C (dose: 3.8 mg/kg/injection, schedule: Q01DX011 (sc), vehicle: steriod suspending solution) is reported as 77 % of control and the T/C (dose: 5.0 mg/kg/injection, schedule: Q01DX011 (sc), vehicle: steriod suspending solution) is reported as 57 % of control. For the same compound, the T/C (dose: 7.5 mg/kg/injection, schedule: Q01DX011 (sc), vehicle: steriod suspending solution) was 68 % of control, the T/C (dose: 10.0 mg/kg/injection, schedule: Q01DX011 (sc), vehicle: steriod suspending solution) was 35 % of control and the T/C (dose: 15.0 mg/kg/injection, schedule: Q01DX011 (sc), vehicle: steriod suspending solution) was 37 % of control. For the same compound, the T/C (dose: 20.0 mg/kg/injection, schedule: Q01DX011 (sc), vehicle: steriod suspending solution) was 25 % of control and 40 % of control, the T/C (dose: 40.0 mg/kg/injection, schedule: Q01DX011 (sc), vehicle: steriod suspending solution) was 14 % of control and 20 % of control and the T/C (dose: 80.0 mg/kg/injection, schedule: Q01DX011 (sc), vehicle: steriod suspending solution) was 6 % of control.
For C[C@]1(O)CC[C@H]2[C@@H]3CC[C@@H]4CC(=O)CC[C@]4(C)[C@@]3(F)C(=O)C[C@@]21C, the T/C (dose: 200.0 mg/kg/injection, schedule: Q01DX011 (sc), vehicle: steriod suspending solution) was 72 % of control and the T/C (dose: 400.0 mg/kg/injection, schedule: Q01DX011 (sc), vehicle: steriod suspending solution) was 117 % of control.
